Assay results as given in patent US20100136603A1, “KIT AND A METHOD FOR EVALUATING TOXICITY USING SPORE RELEASE BY THE GREEN ALGA ULVA” (priority 2008, published 2010).

System: Ulva pertusa Kjellman
Conditions: for order of toxicity of the heavy metal, estimated by EC50: rank order among heavy metals, spore release, 96 hours
Procedure: The present inventors collected Ulva pertusa Kjellman from the coast of Ahnin in Korea, and the leaf (thallus) of Ulva pertusa Kjellman was cut to have a coin shape having a diameter of 6 mm, and dispensed in the plastic cell plate containing 10 ml artificial sea water (35%) medium (Coralife, Energy Savers, California. USA) supplemented with 1 mM KNO3 and 0.1 mM K2HPO4.
The toxicity test was then carried out by adding toxic materials (toxicants) into the medium, keeping the other environmental conditions constant. The used toxic materials and the target concentration are described in the following Table 1.
After cultivated for 96 hours, the thallus having the coin shape was collected, and the area with white color was measured by using the microscope (Axioscope) having a magnification of 400× and the image analysis system (MV200, Samsung, Korea).
The mother liquid of TBTO was prepared in acetone that was mixed with the sea water (0.01%); here an acetone control group in the same concentration was also tested. The toxicities of volatile organic compounds (VOC) [acetone, ethanol, formalin and methanol) were tested by adding aqueous volatile organic compounds (VOC) to the medium to achieve the target concentration.

[Cu] [Cu, copper]
order of toxicity of the heavy metal, estimated by EC50: Cu>Cd>Zn>Pb

C=O [formaline]
half effective concentration (EC50) (in vivo): 0.788 μl/L | order of toxicity of the volatile organic compound (VOC) (in vivo): formaline>methanol>ethanol>acetone

CO [methanol]
order of toxicity of the volatile organic compound (VOC) (in vivo): formaline>methanol>ethanol>acetone

[Zn] [Zn, zinc]
order of toxicity of the heavy metal, estimated by EC50: Cu>Cd>Zn>Pb

CC(C)=O [acetone]
order of toxicity of the volatile organic compound (VOC) (in vivo): formaline>methanol>ethanol>acetone

[Cd] [Cd, cadmium]
order of toxicity of the heavy metal, estimated by EC50: Cu>Cd>Zn>Pb

CCO [ethanol]
order of toxicity of the volatile organic compound (VOC) (in vivo): formaline>methanol>ethanol>acetone
